This is an account of results in patent publication US20060142621A1, “Bismuth dithiocarbamate compounds and uses thereof” (priority 2003, published 2006).

One data set relates to BALB/c mice. Nature of the data set: Maximum Tolerated Dose (MTD) / lethal dose determination in Balb/C mouse model. Type of data set: in vivo. The procedure: The MTD of Bi(S2CNEt2)3 was determined in the following manner. Male and female BALB/c mice obtained from the Laboratory Animal Centre, (National University of Singapore), were used for the study. The mice used were about 4-5 weeks old with a mean body weight of 20±2 g. The 5 mice per cage were kept at room temperature and under standard light conditions. They received standard mouse chow and water. […] The mice in the control group were administered with DMSO only. […] An initial concentration of 20 mg Bi/kg was used for a small sampling population of two mice, one of each gender. If both mice died, the complex concentration was decreased, and the experiment was repeated for another two mice. If one of the mice died but the other survived, the experiment was repeated for a larger sampling population of ten mice, five of each gender, for the same complex concentration. The observation period lasted 14 days. The objective of the experiment was to plot a graph of percent of live mice (number of survivors/ten×100%) against compound dosage (in mg Bi/kg). This procedure enabled the determination of the Maximum Tolerated Dose (at MTD 90% survival of mice).

For data set [1], the system named is OVCAR human ovarian cancer. Nature of the data set: in vivo anti-tumour activity, OVCAR xenograft in nude Balb/C mice. To be noted: nude Balb/C mice with OVCAR, 0.14 mg Bi/kg. Details: species or system mouse. The procedure: Female BALB/C-nude mice, obtained from the Animal Resources Centre in Queensland, Australia were used for this experiment. […] Throughout this experiment, the mice were housed in filtered air laminar-flow cabinets and were manipulated following standard aseptic procedures.
Human ovarian cancer (OVCAR) cells were provided by Dr Ho (Department of Pharmacy, National University of Singapore). OVCAR cells were grown in RPMI-1640 medium with 10% foetal bovine serum and 5 mM L-glutamine.
A suspension of OVCAR cells (10^7 cells) were injected subcutaneously (s.c.) in the flank of each animal (0.1 ml per mice). When the volume of the tumour reached approximately 50-100 mm^3, the mice were randomly divided into 2 groups, the test group and the control group, comprising 6 mice in each group.
The compound was given subcutaneously to mice in amounts of 0.1 ml/20 g three times every two days in the first week. The dose applied was at the level of the MTD, i.e. 0.14 mg Bi/kg mouse. […]
In xenografts transplanted subcutaneously, tumour growth was monitored and the volume of the tumour was determined by measuring its diameter with a vernier calliper every 2-4 days. The Relative Tumour Volume (RTV=tumour volume on day×/tumour volume on day 1) was calculated using the formula width^2×length×0.52.

Where [2] appears, read: i.p. in DMSO, 14 days observation.

In the data set with BALB/c mice (MTD = 90% survival of mice), “bismuth (III) tris(N,N-diethyldithiocarbamate) [Bi(S2CNEt2)3]” returned an MTD of 0.14 mg Bi/kg mouse. In addition, in the data set with BALB/c mice (setting [2]), the LD10 was 0.14 mg/kg, the LD50 came out at 3.57 mg/kg and the LD90 worked out at 7 mg/kg. The anti-tumour activity entry in data set [1] is “significant anti-tumour activity”.

The LD50 is the dose at which mortality reaches 50%. Higher therefore signals a less toxic substance.
